Values quoted from earlier work, collected in paper PMC5962642, “Dynamic imaging of adaptive stress response pathway activation for prediction of drug induced liver injury” (Archives of Toxicology, 2018).

Experiments:
[1] = C-max obtained from FDA or literature; ref per compound (FDA, Dailymed, Xu, O’Brien, Khetani, Regenthal, Gustafsson, Dawson, Ogutu, Patel, Schmidt, Ravic, Keisu, Hu, Wagner); cited from earlier work
[2] = ref Chen et al. [2016], cited from earlier work; for Hepa. (hepatotoxicity class): FDA labeling in eight classes of hepatotoxicity; for DILI con. (DILI-concern labeling): FDA DILI labeling
[3] = ref livertox.nih.gov database; cited from earlier work

SMILES | Cmax [1] [µM] | Hepa. (hepatotoxicity class) [2] | DILI con. (DILI-concern labeling) [2] | Metab (metabolic potential) [3]
Clc1ccccc1CN1CCc2sccc2C1 [Ticlopidine] | 8.07 |  |  | 
CCCc1cc(=O)[nH]c(=S)[nH]1 [Propylthiouracil] | 9.1 | 8 |  | 
CC[C@@H](CO)NCCN[C@@H](CC)CO [Ethambutol] | 24.5 | 8 | Most-DC | 
Fc1ccc([C@@H]2CCNC[C@H]2COc2ccc3c(c2)OCO3)cc1 [Paroxetine] |  | 8 | Less-DC | YES
CC/C(=C(\c1ccccc1)c1ccc(OCCN(C)C)cc1)c1ccccc1 [Tamoxifen] |  |  |  | YES
C[C@H]1O[C@@H](O[C@H]2[C@@H](O)C[C@H](O[C@H]3[C@@H](O)C[C@H](O[C@H]4CC[C@@]5(C)[C@H](CC[C@@H]6[C@@H]5C[C@@H](O)[C@]5(C)[C@@H](C7=CC(=O)OC7)CC[C@]65O)C4)O[C@@H]3C)O[C@@H]2C)C[C@H](O)[C@@H]1O [Digoxin] | 0.003 | 1 |  | 
O=C1NC(=O)C(c2ccccc2)(c2ccccc2)N1 [Phenytoin] | 21.7 | 8 | Most-DC | YES
CN(C)CCCN1c2ccccc2CCc2ccccc21 [Imipramine] | 0.29 |  |  | YES
CN(C)/N=N/c1[nH]cnc1C(N)=O [Dacarbazine] | 20.6 | 6 | Most-DC | 
C[C@@H]1C[C@H]2[C@@H]3CCC4=CC(=O)C=C[C@]4(C)[C@@]3(F)[C@@H](O)C[C@]2(C)[C@@]1(O)C(=O)CO [Dexamethasone] | 0.224 | 3 | Amb.-DC | 
C[C@]12C=CC(=O)C=C1CC[C@@H]1[C@@H]2[C@@H](O)C[C@@]2(C)[C@H]1CC[C@]2(O)C(=O)CO [Prednisolone] | 0.68 | 3 | Less-DC | 
O=c1[nH]cnc2c1ncn2[C@H]1CC[C@@H](CO)O1 [Didanosine] | 9.83 | 8 |  | 
O=C(N[C@H](CO)[C@H](O)c1ccc([N+](=O)[O-])cc1)C(Cl)Cl [Chloramphenicol] | 46.4 |  |  | 
CC(CCc1ccccc1)NCC(O)c1ccc(O)c(C(N)=O)c1 (stereo not drawn) [Labetalol] | 2.68 | 8 | Most-DC | 
O=C(c1ccccc1)c1ccc2n1CCC2C(=O)O (stereo not drawn) [Ketorolac] | 3.53 | 3 | Less-DC | 
CS(=O)(=O)Nc1ccc([N+](=O)[O-])cc1Oc1ccccc1 [Nimesulide] | 21.1 |  |  | YES
CC[C@H]1OC(=O)[C@H](C)[C@@H](O[C@H]2C[C@@](C)(OC)[C@@H](O)[C@H](C)O2)[C@H](C)[C@@H](O[C@@H]2O[C@H](C)C[C@H](N(C)C)[C@H]2O)[C@](C)(O)C[C@@H](C)C(=O)[C@H](C)[C@@H](O)[C@]1(C)O [Erythromycin] | 11 |  |  | 
CCC1=C(C)CN(C(=O)NCCc2ccc(S(=O)(=O)NC(=O)N[C@H]3CC[C@H](C)CC3)cc2)C1=O [Glimepiride] | 1.12 | 7 | Less-DC | 
NC(=O)c1ncn([C@@H]2O[C@H](CO)[C@@H](O)[C@H]2O)n1 [Ribavirin] | 2.61 |  | Amb.-DC | YES
CC(C)NCC(O)COc1cccc2ccccc12 (stereo not drawn) [Propranolol] |  |  |  | YES

SMILES | Cmax [1] [µM] | Hepa. (hepatotoxicity class) [2] | DILI con. (DILI-concern labeling) [2] | Metab (metabolic potential) [3]
CN(C)c1nc(N(C)C)nc(N(C)C)n1 [Altretamine] | 3.76 |  | Amb.-DC | 
COC(=O)Nc1nc2ccc(C(=O)c3ccccc3)cc2[nH]1 [Mebendazole] | 0.13 | 3 |  | 
Cn1cc[nH]c1=S [Methimazole] | 2.62 |  |  | 
C=CC[C@@H]1/C=C(\C)C[C@H](C)C[C@H](OC)[C@H]2O[C@@](O)(C(=O)C(=O)N3CCCC[C@H]3C(=O)O[C@H](/C(C)=C/[C@@H]3CC[C@@H](O)[C@H](OC)C3)[C@H](C)[C@@H](O)CC1=O)[C@H](C)C[C@@H]2OC [Tacrolimus] |  | 5 | Less-DC | YES
CS(=O)(=O)OCCCCOS(C)(=O)=O [Busulfan] | 0.277 | 8 | Most-DC | 
CC(=O)Oc1cc(C(C)C)c(OCCN(C)C)cc1C [Moxisylyte] | 0.16 | 8 |  | 
CC(C)OC(=O)C(C)(C)Oc1ccc(C(=O)c2ccc(Cl)cc2)cc1 [Fenofibrate] | 4.1 | 3 |  | 
C1CCC(C(CC2CCCCN2)C2CCCCC2)CC1 (stereo not drawn) [Perhexiline] |  | 8 | Most-DC | 
O=c1[nH]c(=O)n([C@@H]2O[C@H](CO)[C@@H](O)[C@@H]2F)cc1I [Fialuridine] | 1 | 8 | Most-DC | 
CCCNC(=O)NS(=O)(=O)c1ccc(Cl)cc1 [Chlorpropamide] | 130 | 2 | Less-DC | 
CN(Cc1cnc2nc(N)nc(N)c2n1)c1ccc(C(=O)N[C@@H](CCC(=O)O)C(=O)O)cc1 [Methotrexate] | 0.77 | 3 | Most-DC | 
O=C1CC2(CCCC2)CC(=O)N1CCCCN1CCN(c2ncccn2)CC1 [Buspirone] | 0.016 |  | Amb.-DC | 
CNCCCC12CCC(c3ccccc31)c1ccccc12 [Maprotiline] | 0.18 | 5 | Amb.-DC | 
Cc1cccc(CN2CCN(C(c3ccccc3)c3ccc(Cl)cc3)CC2)c1 (stereo not drawn) [Meclizine] |  | 1 | No-DC | 
CN(C)C(=N)N=C(N)N [Metformin] |  | 1 | Less-DC | YES
NC(=O)N1c2ccccc2C=Cc2ccccc21 [Carbamazepine] | 50.8 | 7 | Most-DC | 
COc1ccc2c(c1)c(CC(=O)O)c(C)n2C(=O)c1ccc(Cl)cc1 [Indomethacin] | 5.59 |  |  | 
CCCCNC(=O)NS(=O)(=O)c1ccc(C)cc1 [Tolbutamide] | 233 |  |  | 
Nc1nc(O)c2ncn(COC(CO)CO)c2n1 [Ganciclovir] | 4.62 | 7 |  | 
CC(=O)CC(c1ccccc1)c1c(O)c2ccccc2oc1=O (stereo not drawn) [Warfarin] | 4.86 |  |  | 

SMILES | Cmax [1] [µM] | Hepa. (hepatotoxicity class) [2] | DILI con. (DILI-concern labeling) [2] | Metab (metabolic potential) [3]
OCCOCCN1CCN(C(c2ccccc2)c2ccc(Cl)cc2)CC1 (stereo not drawn) [Hydroxyzine] | 0.27 | 1 | No-DC | 
C[C@H](CS)C(=O)N1CCC[C@H]1C(=O)O [Captopril] | 8.88 | 7 |  | 
CCOC(=O)CN[C@@H](C(=O)N1CC[C@H]1C(=O)NCc1ccc(/C(N)=N\O)cc1)C1CCCCC1 [Ximelagatran] | 0.3 |  |  | 
COc1ccc([C@@H]2Sc3ccccc3N(CCN(C)C)C(=O)[C@@H]2OC(C)=O)cc1 [Diltiazem] | 0.356 |  |  | 
CCN(CC)C(=S)SSC(=S)N(CC)CC [Disulfiram] | 5.4 |  |  | 
Nc1nc2ncc(CNc3ccc(C(=O)N[C@@H](CCC(=O)O)C(=O)O)cc3)nc2c(=O)[nH]1 [Folic acid] | 0.043 | 1 |  | 
CCc1cccc2c3c([nH]c12)C(CC)(CC(=O)O)OCC3 (stereo not drawn) [Etodolac] | 68.5 | 8 | Most-DC | 
CC1(C)S[C@@H]2[C@H](NC(=O)[C@H](N)c3ccc(O)cc3)C(=O)N2[C@H]1C(=O)O [Amoxicillin] | 22.3 | 5 | Less-DC | 
CNCCC(Oc1ccc(C(F)(F)F)cc1)c1ccccc1 (stereo not drawn) [Fluoxetine] |  | 3 |  | 
C#C[C@]1(O)CC[C@H]2[C@@H]3CCC4=Cc5oncc5C[C@]4(C)[C@H]3CC[C@@]21C [Danazol] | 0.109 | 8 |  | 
CN(C/C=C/C#CC(C)(C)C)Cc1cccc2ccccc12 [Terbinafine] | 4 | 8 | Most-DC | 
COCCc1ccc(OCC(O)CNC(C)C)cc1 (stereo not drawn) [Metoprolol] | 0.56 |  |  | 
COc1ccccc1Oc1c(NS(=O)(=O)c2ccc(C(C)(C)C)cc2)nc(-c2ncccn2)nc1OCCO [Bosentan] |  | 7 | Most-DC | YES
CC1COc2c(N3CCN(C)CC3)c(F)cc3c(=O)c(C(=O)O)cn1c23 (stereo not drawn) [Ofloxacin] | 9.96 | 3 |  | 
CNC[C@H](O)c1ccc(O)c(O)c1 [Epinephrine] | 0.002 | 1 | No-DC | 
COC1=CC(=O)C[C@@H](C)[C@]12Oc1c(Cl)c(OC)cc(OC)c1C2=O [Griseofulvin] | 4.54 |  |  | YES
CC(C)NCC(O)c1ccc(O)c(O)c1 (stereo not drawn) [Isoproterenol] | 2.02 | 1 | No-DC | 
CNC(=C[N+](=O)[O-])NCCSCc1ccc(CN(C)C)o1 [Ranitidine] | 1.79 | 5 | Less-DC | 
Clc1ccccc1C(c1ccccc1)(c1ccccc1)n1ccnc1 [Clotrimazole] | 0.087 | 3 | Less-DC | 
